Test results taken from ChEMBL document CHEMBL3399966, “Isosteric replacements of the carboxylic acid of drug candidate VX-787: Effect of charge on antiviral potency and kinase activity of azaindole-based influenza PB2 inhibitors” (Bioorg Med Chem Lett, 2015).

Legend:
[1] = molecular target: Cyclin-dependent kinase 2 (Homo sapiens, UniProt P24941); assay: Inhibition of CDK2 (unknown origin)
[2] = molecular target: Serine/threonine-protein kinase PLK1 (Homo sapiens, UniProt P53350); assay: Inhibition of PLK (unknown origin)
[3] = molecular target: T1, Phosphatidylinositol 4,5-bisphosphate 3-kinase catalytic subunit delta isoform (Homo sapiens, UniProt O00329); assay: Inhibition of PI3Kdelta (unknown origin)
T1 sequence (O00329 whole entry): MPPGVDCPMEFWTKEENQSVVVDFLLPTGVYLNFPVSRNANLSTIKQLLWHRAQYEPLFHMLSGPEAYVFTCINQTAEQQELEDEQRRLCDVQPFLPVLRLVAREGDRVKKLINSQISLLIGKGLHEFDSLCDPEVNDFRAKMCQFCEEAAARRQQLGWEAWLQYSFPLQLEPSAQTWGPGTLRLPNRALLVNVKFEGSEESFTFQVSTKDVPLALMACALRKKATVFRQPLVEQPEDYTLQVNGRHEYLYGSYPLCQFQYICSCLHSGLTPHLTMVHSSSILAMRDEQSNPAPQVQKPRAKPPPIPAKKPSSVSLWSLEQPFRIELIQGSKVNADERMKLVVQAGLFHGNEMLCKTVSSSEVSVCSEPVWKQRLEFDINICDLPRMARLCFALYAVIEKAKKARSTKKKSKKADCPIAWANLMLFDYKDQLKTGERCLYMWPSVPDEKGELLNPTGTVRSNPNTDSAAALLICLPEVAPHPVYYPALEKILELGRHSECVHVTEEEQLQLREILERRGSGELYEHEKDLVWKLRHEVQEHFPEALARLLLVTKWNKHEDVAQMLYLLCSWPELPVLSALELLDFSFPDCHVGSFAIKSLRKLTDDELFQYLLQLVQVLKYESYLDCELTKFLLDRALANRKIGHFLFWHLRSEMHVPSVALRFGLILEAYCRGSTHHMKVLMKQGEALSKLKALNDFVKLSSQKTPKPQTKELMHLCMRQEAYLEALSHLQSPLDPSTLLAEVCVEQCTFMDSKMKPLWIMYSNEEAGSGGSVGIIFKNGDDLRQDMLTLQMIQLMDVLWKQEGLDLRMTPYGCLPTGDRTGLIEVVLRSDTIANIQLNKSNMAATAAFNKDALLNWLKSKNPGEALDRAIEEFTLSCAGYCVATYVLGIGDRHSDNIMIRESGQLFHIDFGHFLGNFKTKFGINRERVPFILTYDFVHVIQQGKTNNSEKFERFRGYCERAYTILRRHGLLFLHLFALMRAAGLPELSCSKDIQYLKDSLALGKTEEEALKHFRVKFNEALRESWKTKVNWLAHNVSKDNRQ

Influenza A virus [4] = assay: Antiviral activity against influenza A virus A/PR/8/34 strain incubated with MDCK cells assessed as reduction of viral RNA level equal to 1% of control level after 72 hrs by branched DNA assay; format: functional, organism-based; details: A/Puerto Rico/8/1934(H1N1)
[5] = molecular target: Phosphatidylinositol 4,5-bisphosphate 3-kinase catalytic subunit alpha isoform (Homo sapiens, UniProt P42336); assay: Inhibition of PI3Kalpha (unknown origin)
[6] = molecular target: Tyrosine-protein kinase SYK (Homo sapiens, UniProt P43405); assay: Inhibition of SYK (unknown origin)
[7] = molecular target: Phosphatidylinositol 4,5-bisphosphate 3-kinase catalytic subunit beta isoform (Homo sapiens, UniProt P42338); assay: Inhibition of PI3Kbeta (unknown origin)
[8] = molecular target: Hepatocyte growth factor receptor (Homo sapiens, UniProt P08581); assay: Inhibition of MET (unknown origin)
[9] = molecular target: Proto-oncogene tyrosine-protein kinase Src (Homo sapiens, UniProt P12931); assay: Inhibition of SRC (unknown origin)
Influenza A virus [10] = assay: Antiviral activity against Influenza A virus A/PR/8/34 strain incubated with MDCK cells assessed as cell protection after 72 hrs by phenotypic cell protection assay; format: functional, organism-based; details: A/Puerto Rico/8/1934(H1N1)
[11] = molecular target: cAMP-dependent protein kinase catalytic subunit alpha (Homo sapiens, UniProt P17612); assay: Inhibition of PKAa (unknown origin)
[12] = molecular target: Mitogen-activated protein kinase 10 (Homo sapiens, UniProt P53779); assay: Inhibition of JNK3 (unknown origin)
[13] = molecular target: Glycogen synthase kinase-3 (Homo sapiens, UniProt P49840+P49841); assay: Inhibition of GSK3 (unknown origin); format: protein assay
[14] = molecular target: Rho-associated protein kinase (Homo sapiens, UniProt O75116+Q13464); assay: Inhibition of ROCK (unknown origin); format: protein-complex assay
[15] = molecular target: T2, Interleukin-1 receptor-associated kinase 4 (Homo sapiens, UniProt Q9NWZ3); assay: Inhibition of IRAK4 (unknown origin)
T2 sequence (Q9NWZ3 whole entry): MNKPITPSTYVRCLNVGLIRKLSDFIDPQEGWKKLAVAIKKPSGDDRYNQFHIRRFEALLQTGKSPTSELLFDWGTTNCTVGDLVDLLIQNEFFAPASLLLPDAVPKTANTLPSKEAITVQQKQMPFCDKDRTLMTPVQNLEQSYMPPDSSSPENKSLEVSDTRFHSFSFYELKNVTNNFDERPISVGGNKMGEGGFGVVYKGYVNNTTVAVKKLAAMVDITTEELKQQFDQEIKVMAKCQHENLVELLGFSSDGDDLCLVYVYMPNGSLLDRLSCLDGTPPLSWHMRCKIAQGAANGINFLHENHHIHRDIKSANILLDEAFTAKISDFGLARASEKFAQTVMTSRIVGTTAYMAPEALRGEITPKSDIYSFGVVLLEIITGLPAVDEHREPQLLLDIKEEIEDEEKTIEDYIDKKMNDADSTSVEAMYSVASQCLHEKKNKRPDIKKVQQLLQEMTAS

[16] = molecular target: Phosphatidylinositol 4,5-bisphosphate 3-kinase catalytic subunit gamma isoform (Homo sapiens, UniProt P48736); assay: Inhibition of PI3Kgamma (unknown origin)
[17] = molecular target: Vascular endothelial growth factor receptor 2 (Homo sapiens, UniProt P35968); assay: Inhibition of KDR (unknown origin)
[18] = molecular target: T3, Receptor-type tyrosine-protein kinase FLT3 (Homo sapiens, UniProt P36888); assay: Inhibition of FLT3 (unknown origin)
T3 sequence (P36888 whole entry): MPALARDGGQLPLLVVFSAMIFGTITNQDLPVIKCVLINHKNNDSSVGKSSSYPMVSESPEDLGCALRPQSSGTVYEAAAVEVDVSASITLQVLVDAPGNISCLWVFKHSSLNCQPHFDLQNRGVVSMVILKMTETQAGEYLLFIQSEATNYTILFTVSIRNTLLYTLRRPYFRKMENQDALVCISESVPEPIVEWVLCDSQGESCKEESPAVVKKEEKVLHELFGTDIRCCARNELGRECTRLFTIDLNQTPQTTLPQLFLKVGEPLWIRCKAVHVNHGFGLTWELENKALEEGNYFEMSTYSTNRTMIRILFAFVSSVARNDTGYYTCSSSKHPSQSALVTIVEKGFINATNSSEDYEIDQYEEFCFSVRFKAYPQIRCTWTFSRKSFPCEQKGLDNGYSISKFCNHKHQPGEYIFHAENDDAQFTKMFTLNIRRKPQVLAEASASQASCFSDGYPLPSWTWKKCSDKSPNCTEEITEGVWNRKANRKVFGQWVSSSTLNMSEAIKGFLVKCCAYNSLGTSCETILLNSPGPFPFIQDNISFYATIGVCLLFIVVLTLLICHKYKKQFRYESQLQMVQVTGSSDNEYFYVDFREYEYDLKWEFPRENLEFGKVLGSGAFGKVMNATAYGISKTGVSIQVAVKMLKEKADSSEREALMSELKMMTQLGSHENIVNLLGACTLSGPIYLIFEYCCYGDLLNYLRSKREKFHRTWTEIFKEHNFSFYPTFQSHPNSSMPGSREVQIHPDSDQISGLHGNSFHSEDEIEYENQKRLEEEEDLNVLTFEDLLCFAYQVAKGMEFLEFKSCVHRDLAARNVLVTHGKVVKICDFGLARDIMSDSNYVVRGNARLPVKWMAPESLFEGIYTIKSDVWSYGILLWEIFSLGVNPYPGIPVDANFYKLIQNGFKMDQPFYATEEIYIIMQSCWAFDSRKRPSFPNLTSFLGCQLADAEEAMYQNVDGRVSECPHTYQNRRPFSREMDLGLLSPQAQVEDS

[19] = molecular target: Tyrosine-protein kinase JAK2 (Homo sapiens, UniProt O60674); assay: Inhibition of JAK2 (unknown origin)

Sequence of Vascular endothelial growth factor receptor 2 (P35968 whole entry): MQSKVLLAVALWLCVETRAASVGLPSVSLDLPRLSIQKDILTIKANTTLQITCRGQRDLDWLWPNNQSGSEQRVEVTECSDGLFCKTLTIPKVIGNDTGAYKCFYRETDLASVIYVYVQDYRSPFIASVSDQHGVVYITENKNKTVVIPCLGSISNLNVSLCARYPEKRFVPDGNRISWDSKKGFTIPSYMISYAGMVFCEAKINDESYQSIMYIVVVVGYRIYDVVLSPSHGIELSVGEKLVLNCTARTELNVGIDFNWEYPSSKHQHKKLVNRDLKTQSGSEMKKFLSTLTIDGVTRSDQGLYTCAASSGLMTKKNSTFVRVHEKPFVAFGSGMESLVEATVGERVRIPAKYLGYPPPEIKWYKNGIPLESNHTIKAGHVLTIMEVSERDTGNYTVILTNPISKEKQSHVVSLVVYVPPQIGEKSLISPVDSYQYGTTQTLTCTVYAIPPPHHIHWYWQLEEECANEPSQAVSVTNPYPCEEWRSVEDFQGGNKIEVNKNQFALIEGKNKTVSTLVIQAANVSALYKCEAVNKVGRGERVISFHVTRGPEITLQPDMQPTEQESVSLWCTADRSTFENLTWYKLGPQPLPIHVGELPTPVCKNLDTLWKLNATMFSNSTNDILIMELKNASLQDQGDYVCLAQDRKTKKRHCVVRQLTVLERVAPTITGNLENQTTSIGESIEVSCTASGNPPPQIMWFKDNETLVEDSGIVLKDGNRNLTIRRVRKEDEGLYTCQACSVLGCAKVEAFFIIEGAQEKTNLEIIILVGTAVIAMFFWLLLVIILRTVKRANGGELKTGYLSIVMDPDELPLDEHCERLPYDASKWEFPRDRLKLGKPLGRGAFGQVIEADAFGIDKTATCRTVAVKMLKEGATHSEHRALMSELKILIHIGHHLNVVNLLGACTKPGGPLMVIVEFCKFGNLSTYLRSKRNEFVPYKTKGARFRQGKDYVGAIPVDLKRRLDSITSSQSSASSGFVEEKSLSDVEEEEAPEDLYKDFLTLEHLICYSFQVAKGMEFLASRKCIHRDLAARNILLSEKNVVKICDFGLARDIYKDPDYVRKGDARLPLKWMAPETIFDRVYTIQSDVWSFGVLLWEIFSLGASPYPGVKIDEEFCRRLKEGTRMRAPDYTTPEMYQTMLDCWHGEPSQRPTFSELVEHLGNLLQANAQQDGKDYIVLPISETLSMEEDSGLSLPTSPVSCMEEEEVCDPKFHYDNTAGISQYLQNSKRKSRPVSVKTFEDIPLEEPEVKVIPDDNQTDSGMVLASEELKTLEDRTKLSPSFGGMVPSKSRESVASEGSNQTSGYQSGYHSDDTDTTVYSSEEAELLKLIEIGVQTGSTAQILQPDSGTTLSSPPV
Sequence of Mitogen-activated protein kinase 10 (P53779 whole entry): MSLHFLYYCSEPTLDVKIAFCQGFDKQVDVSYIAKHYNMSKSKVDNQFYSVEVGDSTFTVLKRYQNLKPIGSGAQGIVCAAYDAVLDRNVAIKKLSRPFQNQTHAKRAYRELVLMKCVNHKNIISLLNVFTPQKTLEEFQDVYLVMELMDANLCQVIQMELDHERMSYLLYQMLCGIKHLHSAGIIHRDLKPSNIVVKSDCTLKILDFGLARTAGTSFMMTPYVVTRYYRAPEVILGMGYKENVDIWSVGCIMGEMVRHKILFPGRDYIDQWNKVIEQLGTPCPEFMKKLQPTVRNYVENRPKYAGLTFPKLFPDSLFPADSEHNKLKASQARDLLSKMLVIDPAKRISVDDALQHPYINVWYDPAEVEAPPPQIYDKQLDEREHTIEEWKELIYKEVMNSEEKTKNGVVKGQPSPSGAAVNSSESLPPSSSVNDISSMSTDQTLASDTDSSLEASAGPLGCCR
Sequence of Phosphatidylinositol 4,5-bisphosphate 3-kinase catalytic subunit gamma isoform (P48736 whole entry, canonical isoform): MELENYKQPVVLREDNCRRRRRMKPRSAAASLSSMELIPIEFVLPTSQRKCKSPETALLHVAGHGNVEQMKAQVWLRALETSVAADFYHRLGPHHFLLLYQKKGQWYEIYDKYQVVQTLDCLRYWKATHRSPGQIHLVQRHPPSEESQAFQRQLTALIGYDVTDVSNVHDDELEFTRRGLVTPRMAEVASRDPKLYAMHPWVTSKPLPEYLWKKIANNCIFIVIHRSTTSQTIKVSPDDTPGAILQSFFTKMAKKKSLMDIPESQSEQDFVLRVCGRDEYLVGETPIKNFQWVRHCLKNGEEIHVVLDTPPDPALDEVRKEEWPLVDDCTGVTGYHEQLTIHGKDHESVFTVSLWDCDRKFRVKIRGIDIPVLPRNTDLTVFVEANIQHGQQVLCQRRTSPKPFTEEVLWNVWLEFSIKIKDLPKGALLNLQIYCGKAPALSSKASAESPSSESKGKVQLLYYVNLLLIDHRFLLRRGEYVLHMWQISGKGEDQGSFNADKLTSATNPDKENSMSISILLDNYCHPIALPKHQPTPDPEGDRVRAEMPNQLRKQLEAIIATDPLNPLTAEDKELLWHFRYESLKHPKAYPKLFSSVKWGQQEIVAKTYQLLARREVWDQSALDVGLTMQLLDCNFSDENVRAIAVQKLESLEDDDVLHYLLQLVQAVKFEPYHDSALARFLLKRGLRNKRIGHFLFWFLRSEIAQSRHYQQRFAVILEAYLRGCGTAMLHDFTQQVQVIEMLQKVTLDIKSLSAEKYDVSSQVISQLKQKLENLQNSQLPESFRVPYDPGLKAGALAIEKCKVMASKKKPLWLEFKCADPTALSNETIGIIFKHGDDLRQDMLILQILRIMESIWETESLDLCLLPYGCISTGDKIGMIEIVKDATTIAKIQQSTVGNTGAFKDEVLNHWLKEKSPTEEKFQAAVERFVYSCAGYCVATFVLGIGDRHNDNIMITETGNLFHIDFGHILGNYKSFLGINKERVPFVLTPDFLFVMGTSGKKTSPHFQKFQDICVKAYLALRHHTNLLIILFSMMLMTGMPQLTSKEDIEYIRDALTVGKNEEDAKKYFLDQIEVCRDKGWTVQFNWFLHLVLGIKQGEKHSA
Sequence of Phosphatidylinositol 4,5-bisphosphate 3-kinase catalytic subunit beta isoform (P42338 whole entry, canonical isoform): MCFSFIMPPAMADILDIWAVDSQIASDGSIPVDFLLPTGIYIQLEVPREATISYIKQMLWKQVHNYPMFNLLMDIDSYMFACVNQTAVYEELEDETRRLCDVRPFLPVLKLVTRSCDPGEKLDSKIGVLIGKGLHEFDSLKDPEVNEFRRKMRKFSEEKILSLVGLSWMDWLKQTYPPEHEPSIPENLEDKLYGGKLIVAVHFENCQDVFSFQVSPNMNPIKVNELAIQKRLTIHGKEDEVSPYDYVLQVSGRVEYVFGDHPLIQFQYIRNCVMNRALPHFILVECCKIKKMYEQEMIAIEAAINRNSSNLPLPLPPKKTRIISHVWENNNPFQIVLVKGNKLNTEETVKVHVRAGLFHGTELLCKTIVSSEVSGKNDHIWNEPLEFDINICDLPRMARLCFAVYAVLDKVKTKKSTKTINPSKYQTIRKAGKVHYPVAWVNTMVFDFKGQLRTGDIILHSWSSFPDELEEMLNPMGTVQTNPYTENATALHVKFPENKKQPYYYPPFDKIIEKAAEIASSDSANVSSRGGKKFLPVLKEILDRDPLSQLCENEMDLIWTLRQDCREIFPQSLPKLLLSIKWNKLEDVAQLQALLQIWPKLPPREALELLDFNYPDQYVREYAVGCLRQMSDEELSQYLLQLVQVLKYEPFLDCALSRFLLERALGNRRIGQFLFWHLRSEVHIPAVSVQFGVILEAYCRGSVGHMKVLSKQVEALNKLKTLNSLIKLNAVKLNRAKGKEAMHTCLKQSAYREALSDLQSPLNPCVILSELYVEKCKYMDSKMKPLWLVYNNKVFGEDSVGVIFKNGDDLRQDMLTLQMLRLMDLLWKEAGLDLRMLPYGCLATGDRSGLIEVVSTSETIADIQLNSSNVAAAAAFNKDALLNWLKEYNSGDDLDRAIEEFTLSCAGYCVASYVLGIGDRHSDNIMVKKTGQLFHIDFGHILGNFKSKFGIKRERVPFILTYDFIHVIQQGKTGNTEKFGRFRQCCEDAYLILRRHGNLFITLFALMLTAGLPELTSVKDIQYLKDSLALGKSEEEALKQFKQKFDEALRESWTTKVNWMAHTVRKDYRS
Sequence of Phosphatidylinositol 4,5-bisphosphate 3-kinase catalytic subunit alpha isoform (P42336 whole entry, canonical isoform): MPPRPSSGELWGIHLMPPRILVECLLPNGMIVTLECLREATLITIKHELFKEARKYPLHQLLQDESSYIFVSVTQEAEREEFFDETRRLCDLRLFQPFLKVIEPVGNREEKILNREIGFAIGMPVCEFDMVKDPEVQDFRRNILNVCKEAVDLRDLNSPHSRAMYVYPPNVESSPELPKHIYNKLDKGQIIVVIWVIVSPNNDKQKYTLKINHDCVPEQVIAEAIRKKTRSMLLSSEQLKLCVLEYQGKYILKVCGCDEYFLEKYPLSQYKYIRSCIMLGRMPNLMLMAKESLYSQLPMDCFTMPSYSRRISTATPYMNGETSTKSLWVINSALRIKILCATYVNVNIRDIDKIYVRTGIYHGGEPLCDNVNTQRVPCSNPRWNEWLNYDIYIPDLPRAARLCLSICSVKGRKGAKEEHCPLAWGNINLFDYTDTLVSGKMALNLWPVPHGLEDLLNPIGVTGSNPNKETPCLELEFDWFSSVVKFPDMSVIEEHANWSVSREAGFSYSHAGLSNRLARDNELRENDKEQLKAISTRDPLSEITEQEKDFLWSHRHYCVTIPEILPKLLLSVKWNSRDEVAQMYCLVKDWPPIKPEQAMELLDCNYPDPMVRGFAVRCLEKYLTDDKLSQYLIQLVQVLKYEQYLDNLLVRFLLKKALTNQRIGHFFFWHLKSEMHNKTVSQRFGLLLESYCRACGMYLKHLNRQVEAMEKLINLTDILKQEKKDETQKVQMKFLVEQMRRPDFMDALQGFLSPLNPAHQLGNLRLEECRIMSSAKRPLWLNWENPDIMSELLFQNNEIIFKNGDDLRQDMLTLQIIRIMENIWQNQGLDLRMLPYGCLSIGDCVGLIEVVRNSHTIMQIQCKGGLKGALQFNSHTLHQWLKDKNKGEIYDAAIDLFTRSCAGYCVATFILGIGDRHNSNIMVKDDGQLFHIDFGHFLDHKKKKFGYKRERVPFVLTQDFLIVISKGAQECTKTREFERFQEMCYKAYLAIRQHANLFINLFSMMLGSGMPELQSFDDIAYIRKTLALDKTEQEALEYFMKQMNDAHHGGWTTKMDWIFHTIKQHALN

SMILES | Ki [1] [µM] | Ki [2] [µM] | Ki [3] [µM] | EC50 (Influenza A virus [4]) [µM] | EC99 (Influenza A virus [4]) [µM] | Ki [5] [µM] | Ki [6] [µM] | Ki [7] [µM] | Ki [8] [µM] | Ki [9] [µM] | IC50 (Influenza A virus [10]) [µM] | Ki [11] [µM] | Ki [12] [µM] | Ki [13] [µM] | Ki [14] [µM] | Ki [15] [µM] | Ki [16] [µM] | Ki [17] [µM] | Ki [18] [µM] | Ki [19] [µM]
NS(=O)(=O)[C@H]1C2CCC(CC2)[C@@H]1Nc1nc(-c2c[nH]c3ncc(F)cc23)ncc1F (mixture of isomers) | > 4 | 2.1 | 1.9 | 0.006 | 0.064 | > 4 | > 4 | > 4 | > 4 | 3.1 | 0.006 | 0.49 | > 4 | 0.085 | 0.98 | > 4 | 1.1 | 1.9 | 1.2 | 0.84
Oc1cc([C@H]2C3CCC(CC3)[C@@H]2Nc2nc(-c3c[nH]c4ncc(F)cc34)ncc2F)on1 (mixture of isomers) | > 4 | > 4 | > 4 | 0.002 | 0.033 | 1.3 | > 4 | > 4 | > 4 | > 4 | 0.001 | > 4 | > 4 | 1.6 | > 4 | > 4 | 0.69 | > 4 | > 4 | > 4
O=P(O)(O)[C@H]1C2CCC(CC2)[C@@H]1Nc1nc(-c2c[nH]c3ncc(F)cc23)ncc1F (mixture of isomers) | > 4 | > 4 | > 4 | 0.051 | 0.29 | > 4 | > 4 | > 4 | > 4 | > 4 | 0.091 | > 4 | > 4 | > 4 | > 4 | > 4 | > 4 | > 4 | 1.1 | > 4
CS(=O)(=O)[C@H]1C2CCC(CC2)[C@@H]1Nc1nc(-c2c[nH]c3ncc(F)cc23)ncc1F (mixture of isomers) | > 4 | > 4 | 3.3 | 0.002 | 2.2 | > 4 | > 4 | > 4 | > 4 | 3.1 | 0.23 | 1.5 | > 4 | 0.077 | 2.7 | > 4 | 1.2 | 1.5 | 0.84 | 0.74
Oc1cc([C@H]2C3CCC(CC3)[C@@H]2Nc2nc(-c3c[nH]c4ncc(F)cc34)ncc2F)[nH]n1 (mixture of isomers) | > 4 | 1.7 | > 4 | 0.14 | 0.76 | > 4 | > 4 | > 4 | > 4 | > 4 | 0.16 | > 4 | > 4 | 1.2 | > 4 | > 4 | > 4 | > 4 | 4 | > 4
